Measured values: patent US6384187B1, “Antiproliferative activity of microsclerodermins” (Harbor Branch Oceanographic Institution, Inc., priority 1999, dated 2002)

Tested on: A549 human lung adenocarcinoma cells
Assay: Immunofluorescent detection of effects on the microtubule matrix (anti-alpha-tubulin)
Type: cell-based
Method: Microsclerodermin compounds were evaluated as to their effects on the microtubule network of A549 human lung adenocarcinoma cells using anti-alpha-tubulin monoclonal antibodies. […] Tests were conducted to determine if the microsclerodermin compounds acted upon the cellular microtubule network in a similar fashion.
On day 1, 7.0×10^4 adherent A549 cells were cultured in TCM overnight at 37° C. in 5% CO2 on 22 mm2 coverslipsin 6-well microtiter plates. On day 2, the TCM was removed and replaced with various concentrations of the microsclerodermin compounds, or discodermolide,in TCM or TCM without drug (control) and incubated for 24 hours at 37° C. in 5% CO2. On day 3, the TCM was removed and the adhered cells were fixed in 3.7% formaldehyde solution in Dulbecco's phosphate-buffered saline (D-PBS) for 10 minutes at room temperature. The cells were then permeabilized in a 2% Triton X-100 solution in D-PBS, 2 ml per well, for 5 minutes at room temperature and washed twice in D-PBS prior to staining.
To each well containing cells attached to coverslips a 2 ml volume of mouse monoclonal anti-alpha-tubulin(Cat#T-5168, Sigma Immuno Chemicals) diluted 1:1000 in D-PBS was added and the cells incubated at room temperature for 45 minutes. The coverslips were rinsed twice with D-PBS. A 2 ml volume of goat-anti-mouse-IgG-FITC conjugate (Cat#T-5262, Sigma Immuno Chemicals) diluted at 1:1000 in D-PBS was added and the cells incubated at room temperature for 45 minutes. Coverslips were rinsed twice in D-PBS and incubated for 30 minutes at 37° C. with 1 ml/well of propidium iodide ([…]) and ribonuclease A ([…]) in D-PBS. The cover slips were rinsed three times with sterile distilled water, mounted on slides, and observed under the microscope using epifluorescence illumination for the presence of abnormal aster and microtubule bundle formation.

[1] = treated cells, concentration not given, reference agents

## C=C/C=C\[C@H](C)[C@H](OC(N)=O)[C@@H](C)[C@H](O)[C@@H](C)C/C(C)=C\[C@H](C)[C@@H](O)[C@@H](C)/C=C\[C@@H](O)C[C@@H]1OC(=O)[C@H](C)[C@@H](O)[C@H]1C [discodermolide, reference compound]
[1]
  abnormal aster and microtubule bundle formation: abnormal formation of multiple centriolar-radiating microtubules with extensive clusters of associated microtubular “bundles”

## CC(=O)O[C@H]1C(=O)[C@@]2(C)[C@H]([C@H](OC(=O)c3ccccc3)[C@]3(O)C[C@H](OC(=O)[C@H](O)[C@@H](NC(=O)c4ccccc4)c4ccccc4)C(C)=C1C3(C)C)[C@]1(OC(C)=O)CO[C@@H]1C[C@@H]2O [paclitaxel, reference compound]
[1]
  abnormal aster and microtubule bundle formation: abnormal formation of multiple centriolar-radiating microtubules with extensive clusters of associated microtubular “bundles”

## microsclerodermin F
A549 cells, 5 μg/ml, 24 hours
  abnormal aster and microtubule bundle formation: nor was there any microtubule bundling or cells with multiple asters
  cell number compared with control cultures: fewer cells than in control cultures
  cells undergoing mitosis: No cells in the culture were found to be undergoing mitosis
A549 cells, 5 μg/ml, 24 hours, seen in some cells
  alpha-tubulin antibody staining of the microtubule matrix: completely disassembled structure with a near uniform distribution throughout the cytoplasm
